The source of these data is patent publication US20240109905A1, “4-ALKOXY-6-OXO-PYRIDAZINE DERIVATIVES MODULATING NLRP3” (JANSSEN PHARMACEUTICA NV, priority 2021, published 2024).

Experiment [1] has as its system IL-1β. In words: PBMC assay: IL-1β release after LPS stimulation. The experiment is classed as cell-based. Particulars: PBMC; human PBMCs, 30 min compound, 100 ng/ml LPS for 6 hrs, MSD; read-out: IL1β AC50. The method, boiled down: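 Thawed PBMCs from healthy donors (7.5×10^4 cells/well) were preincubated with serially diluted compound for 30 min at 37 °C, then stimulated with 100 ng/ml LPS (final) for 6 h. IL-1β in the supernatant was measured by MSD immunoassay, and AC50 values were derived from the concentration-response data.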

Experiment [2] deals with TNF. In words: PBMC assay: TNF cytokine level after LPS stimulation. The format is cell-based. Particulars: PBMC; human PBMCs, 30 min compound, 100 ng/ml LPS for 6 hrs, MSD. The method, boiled down: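 Thawed human PBMCs from healthy donors (7.5×10^4 per well, RPMI + 10% FBS) preincubated 30 min at 37° C with 1:3 serially diluted compounds, then stimulated 6 h with 100 ng/ml LPS (final). Supernatant TNF measured by MSD immunoassay; EC50/AC50 derived.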

In general, AC50 refers to the midpoint of the concentration-response curve, whichever way the signal moves.

Molecules are shown by their SMILES.

As for `CC(C)COc1cc(=O)n(CCO)nc1N(C)C` [Compound 158], the AC50 in experiment [1] and in experiment [2] was over 20 µM in each case.
On to `CC(C)c1nn(CC(=O)Nc2ccc3nncn3c2)c(=O)cc1OC1CCNC1` (stereo not drawn) [Compound 159], for which the AC50 in experiment [1] and in experiment [2] was over 20 µM each time.
For the compound `CC(C)c1nn(CC(=O)Nc2ccc3nncn3c2)c(=O)cc1OCC1CNC1` [Compound 160], the AC50 in experiment [1] and in experiment [2] was over 20 µM throughout.
On to `CC(C)c1nn(CC(=O)Nc2ccc3nncn3c2)c(=O)cc1OC1CNC1` [Compound 161], for which the AC50 in experiment [1] and in experiment [2] was over 20 µM in each case.
For the compound `COc1cc(=O)n(CC(=O)Nc2ccc3nncn3c2)nc1C(C)C` [Compound 162], the AC50 in experiment [1] and in experiment [2] was over 20 µM throughout.
Turning to `CC(C)COc1c(C(C)C)nn(CC(=O)Nc2ccc3nncn3c2)c(=O)c1C(F)(F)F` [Compound 163], the AC50 in experiment [1] and in experiment [2] was over 20 µM each time.
